Experiments:
Assay in all cases: Live cell target engagement (NanoBRET) in HEK293 cells
Format in all cases: cell-based
AKT1 E17K = AKT1 E17K (Homo sapiens (Human), UniProt P31749, E17K); conditions: for IC50: HEK293, 2 hours at 37° C.
AKT1 WT = AKT1 WT (Homo sapiens (Human), UniProt P31749); conditions: HEK293, 2 hours at 37° C.
AKT2 = AKT2 (Homo sapiens (Human), UniProt P31751); conditions: HEK293, 2 hours at 37° C.
Sequence of AKT2 (P31751 whole entry): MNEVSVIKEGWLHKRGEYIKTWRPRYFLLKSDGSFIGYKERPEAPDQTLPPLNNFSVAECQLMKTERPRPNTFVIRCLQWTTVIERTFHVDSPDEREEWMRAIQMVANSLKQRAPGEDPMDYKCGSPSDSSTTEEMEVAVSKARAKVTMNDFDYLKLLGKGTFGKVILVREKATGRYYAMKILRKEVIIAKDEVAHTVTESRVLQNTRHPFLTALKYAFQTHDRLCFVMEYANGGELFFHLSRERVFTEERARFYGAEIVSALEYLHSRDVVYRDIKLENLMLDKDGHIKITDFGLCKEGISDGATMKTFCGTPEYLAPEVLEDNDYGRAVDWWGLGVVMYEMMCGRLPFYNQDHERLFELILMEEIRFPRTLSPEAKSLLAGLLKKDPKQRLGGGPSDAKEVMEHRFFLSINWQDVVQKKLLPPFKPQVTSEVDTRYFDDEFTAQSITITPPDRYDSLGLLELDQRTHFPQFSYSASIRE

Sequence of AKT1 WT (P31749 whole entry): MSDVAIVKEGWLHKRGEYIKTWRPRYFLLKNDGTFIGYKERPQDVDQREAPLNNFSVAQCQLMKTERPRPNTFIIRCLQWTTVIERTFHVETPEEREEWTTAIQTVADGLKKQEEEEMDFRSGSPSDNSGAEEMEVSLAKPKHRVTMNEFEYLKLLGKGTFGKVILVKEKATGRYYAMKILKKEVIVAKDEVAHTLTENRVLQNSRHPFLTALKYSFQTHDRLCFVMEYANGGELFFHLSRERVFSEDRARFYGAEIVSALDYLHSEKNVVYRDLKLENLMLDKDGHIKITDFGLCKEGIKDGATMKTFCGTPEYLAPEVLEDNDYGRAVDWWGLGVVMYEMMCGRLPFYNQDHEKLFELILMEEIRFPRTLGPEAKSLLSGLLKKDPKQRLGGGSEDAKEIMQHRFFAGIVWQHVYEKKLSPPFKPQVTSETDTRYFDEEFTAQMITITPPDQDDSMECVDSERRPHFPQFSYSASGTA
Sequence of AKT1 E17K (P31749 whole entry E17K): as the sequence (P31749 whole entry) above, with E17K counted along it

Structure (SMILES) | AKT1 E17K IC50: Selectivity vs AKT1 WT (AKT1 E17K) | AKT1 E17K IC50: Selectivity vs AKT2 (AKT1 E17K) | IC50 (AKT1 E17K) [nM] | IC50 (AKT1 WT) [nM] | IC50 (AKT2) [nM]
CC(C(=O)NCc1ccc(-n2c(-c3cccnc3N)nc3ccc(-c4ccccc4)nc32)cc1)c1ccc(C=O)c(O)c1 (centres unmarked) [Compound 37] | 11 | 180 | < 100 | < 100 | > 500
Nc1ncccc1-c1nc2ccc(-c3ccccc3)nc2n1-c1ccc(N2CC(NCc3ccc(C=O)c(O)c3)C2)cc1 [Compound 38, 4-(((1-(4-(2-(2-aminopyridin-3-yl)-5-phenyl-3H-imidazo[4,5-b]pyridin-3-yl)phenyl)azetidin-3-yl)amino)methyl)-2-hydroxybenzaldehyde] | 1.5 | 15 | 100 to 500 | 100 to 500 | > 500
Nc1ncccc1-c1nc2ccc(-c3ccccc3)nc2n1-c1ccc(CCNCc2ccc(C=O)c(O)c2F)cc1 [Compound 40, 4-(((4-(2-(2-aminopyridin-3-yl)-5-phenyl-3H-imidazo[4,5-b]pyridin-3-yl)phenethyl)amino)methyl)-3-fluoro-2-hydroxybenzaldehyde] | 2.2 | 6.7 | < 100 | < 100 | 100 to 500
CC(C)(C)c1cc(C(=O)NCc2ccc(-n3c(-c4cccnc4N)nc4ccc(-c5ccccc5)nc43)cc2)cc(C=O)c1O [Compound 41, N-(4-(2-(2-aminopyridin-3-yl)-5-phenyl-3H-imidazo[4,5-b]pyridin-3-yl)benzyl)-3-(tert-butyl)-5-formyl-4-hydroxybenzamide] | 0.24 | 0.77 | > 500 | > 500 | > 500
Nc1ncccc1-c1nc2ccc(-c3cccc(N4CCC(N5CCCC5=O)CC4)c3F)nc2n1-c1ccc(CNC(=O)Cc2ccc(C=O)c(O)c2)cc1 [Compound 42, N-({4-[2-(2-aminopyridin-3-yl)-5-{2-fluoro-3-[4-(2-oxopyrrolidin-1-yl)piperidin-1-yl]phenyl}imidazo[4,5-b]pyridin-3-yl]phenyl}methyl)-2-(4-formyl-3-hydroxyphenyl)acetamide] | 1.7 | 4.8 | < 100 | < 100 | < 100
CN(C)C(=O)Nc1cc(CC(=O)NCc2ccc(-n3c(-c4cccnc4N)nc4cccnc43)cc2)ccc1C=O [Compound 43, N-(4-(2-(2-aminopyridin-3-yl)-3H-imidazo[4,5-b]pyridin-3-yl)benzyl)-2-(3-(3,3-dimethylureido)-4-formylphenyl)acetamide] | 4.5 | >150 | < 100 | 100 to 500 | > 500
Cn1cc(C(=O)Nc2cc(CC(=O)NCc3ccc(-n4c(-c5cccnc5N)nc5cccnc54)cc3)ccc2C=O)cn1 [Compound 44, N-(5-(2-((4-(2-(2-aminopyridin-3-yl)-3H-imidazo[4,5-b]pyridin-3-yl)benzyl)amino)-2-oxoethyl)-2-formylphenyl)-1-methyl-1H-pyrazole-4-carboxamide] | 3.6 | 34 | 100 to 500 | > 500 | > 500
Nc1ncccc1-c1nc2ccc(-c3ccccc3)nc2n1-c1ccc(CNC(=O)CCc2ccc(C=O)c(O)c2)cc1 [Compound 117] | 0.47 | 2 | 100 to 500 |  | 100 to 500
Nc1ncccc1-c1nc2ccc(-c3ccccc3)nc2n1-c1ccc(CNC(=O)c2ccc(C=O)c(O)c2)cc1 [Compound 138, N-(4-(2-(2-aminopyridin-3-yl)-5-phenyl-3H-imidazo[4,5-b]pyridin-3-yl)benzyl)-4-formyl-3-hydroxybenzamide] | 0.52 |  | < 100 | < 100 | 

Second part, the compound after the results:

AKT1 E17K IC50: Selectivity vs AKT1 WT (AKT1 E17K) | AKT1 E17K IC50: Selectivity vs AKT2 (AKT1 E17K) | IC50 (AKT1 E17K) [nM] | IC50 (AKT1 WT) [nM] | IC50 (AKT2) [nM] | Structure (SMILES)
4.3 | 210 | < 100 | < 100 | > 500 | Cc1ccc2nc(-c3cccnc3N)n(-c3ccc(CNC(=O)Cc4ccc(C=O)c(O)c4)cc3)c2n1 [Compound 24, N-({4-[2-(2-aminopyridin-3-yl)-5-methylimidazo[4,5-b]pyridin-3-yl]phenyl}methyl)-2-(4-formyl-3-hydroxyphenyl)acetamide]
4.3 | 120 | < 100 | < 100 | > 500 | Nc1ncccc1-c1nc2ccc(NC3CC3)nc2n1-c1ccc(CNC(=O)Cc2ccc(C=O)c(O)c2)cc1 [Compound 25, N-({4-[2-(2-aminopyridin-3-yl)-5-(cyclopropylamino)imidazo[4,5-b]pyridin-3-yl]phenyl}methyl)-2-(4-formyl-3-hydroxyphenyl)acetamide]
2.4 | 190 | < 100 | < 100 | > 500 | Nc1ncccc1-c1nc2ccc(C3CC3)nc2n1-c1ccc(CNC(=O)C(F)c2ccc(C=O)c(O)c2)cc1 (centres unmarked) [Compound 26, N-({4-[2-(2-aminopyridin-3-yl)-5-cyclopropylimidazo[4,5-b]pyridin-3-yl]phenyl}methyl)-2-fluoro-2-(4-formyl-3-hydroxyphenyl)acetamide]
3.8 | 110 | < 100 | 100 to 500 | > 500 | Nc1ncccc1-c1nc2ccc(C3CC3)nc2n1-c1ccc(CNC(=O)c2ccc(O)c(C=O)c2)cc1 [Compound 27, N-({4-[2-(2-aminopyridin-3-yl)-5-cyclopropylimidazo[4,5-b]pyridin-3-yl]phenyl}methyl)-3-formyl-4-hydroxybenzamide]
1.3 | 17 | < 100 | < 100 | 100 to 500 | Nc1ncccc1-c1nc2ccc(-c3ccccc3)nc2n1-c1ccc(NC(=O)Cc2ccc(O)c(C=O)c2)cc1 [Compound 28, N-{4-[2-(2-aminopyridin-3-yl)-5-phenylimidazo[4,5-b]pyridin-3-yl]phenyl}-2-(3-formyl-4-hydroxyphenyl)acetamide]
3 | 23 | < 100 | < 100 | 100 to 500 | Nc1ncccc1-c1nc2ccc(-c3ccccc3)nc2n1-c1ccc(C(=O)NCc2ccc(O)c(C=O)c2)cc1 [Compound 29, 4-(2-(2-aminopyridin-3-yl)-5-phenyl-3H-imidazo[4,5-b]pyridin-3-yl)-N-(3-formyl-4-hydroxybenzyl)benzamide]
1.9 | 6.2 | < 100 | 100 to 500 | > 500 | Nc1ncccc1-c1nc2ccc(-c3ccccc3)nc2n1-c1ccc(C(CO)NC(=O)Cc2ccc(C=O)c(O)c2F)cc1 (centres unmarked) [Compound 30, N-(1-(4-(2-(2-aminopyridin-3-yl)-5-phenyl-3H-imidazo[4,5-b]pyridin-3-yl)phenyl)-2-hydroxyethyl)-2-(2-fluoro-4-formyl-3-hydroxyphenyl)acetamide]
9 | 110 | < 100 | 100 to 500 | > 500 | Cn1cc(-c2ccc3nc(-c4cccnc4N)n(-c4ccc(CNC(=O)Cc5ccc(C=O)c(O)c5)cc4)c3n2)cn1 [Compound 32, N-({4-[2-(2-aminopyridin-3-yl)-5-(1-methylpyrazol-4-yl)imidazo[4,5-b]pyridin-3-yl]phenyl}methyl)-2-(4-formyl-3-hydroxyphenyl)acetamide]
23 | 400 | < 100 | 100 to 500 | > 500 | COc1ccc2nc(-c3cccnc3N)n(-c3ccc(CNC(=O)Cc4ccc(C=O)c(O)c4)cc3)c2n1 [Compound 33, N-(4-(2-(2-aminopyridin-3-yl)-5-methoxy-3H-imidazo[4,5-b]pyridin-3-yl)benzyl)-2-(4-formyl-3-hydroxyphenyl)acetamide]
10 | 40 | < 100 | 100 to 500 | > 500 | Nc1ncccc1-c1nc2ccc(-c3ccnc(N4CCOCC4)c3)nc2n1-c1ccc(CNC(=O)Cc2ccc(C=O)c(O)c2)cc1 [Compound 34, N-({4-[2-(2-aminopyridin-3-yl)-5-[2-(morpholin-4-yl)pyridin-4-yl]imidazo[4,5-b]pyridin-3-yl]phenyl}methyl)-2-(4-formyl-3-hydroxyphenyl)acetamide]
3.4 | 140 | < 100 | < 100 | 100 to 500 | Nc1ncccc1-c1nc2ccc(-n3cccn3)nc2n1-c1ccc(CNC(=O)Cc2ccc(C=O)c(O)c2)cc1 [Compound 35, N-({4-[2-(2-aminopyridin-3-yl)-5-(pyrazol-1-yl)imidazo[4,5-b]pyridin-3-yl]phenyl}methyl)-2-(4-formyl-3-hydroxyphenyl)acetamide]
2 | 9.2 | < 100 | < 100 | 100 to 500 | Nc1ncccc1-c1nc2ccc(-c3ccccc3)nc2n1-c1ccc(CCNCCc2ccc(C=O)c(O)c2)cc1 [Compound 36, 4-(2-((4-(2-(2-aminopyridin-3-yl)-5-phenyl-3H-imidazo[4,5-b]pyridin-3-yl)phenethyl)amino)ethyl)-2-hydroxybenzaldehyde]
1.5 | 5.2 | < 100 | 100 to 500 | 100 to 500 | CN(CCc1ccc(-n2c(-c3cccnc3N)nc3ccc(-c4ccccc4)nc32)cc1)Cc1ccc(C=O)c(O)c1 [Compound 39, 4-{[(2-{4-[2-(2-aminopyridin-3-yl)-5-phenylimidazo[4,5-b]pyridin-3-yl]phenyl}ethyl)(methyl)amino]methyl}-2-hydroxybenzaldehyde]

From patent US20250115600A1, “COVALENT MODIFIERS OF AKT1 AND USES THEREOF” (Terremoto Biosciences, Inc., priority 2022, published 2025)
